Numbered stars: 1 amine (or outer) side, 2 acyl side, 3 side chain; on linkers, the order of the positions; unused ones are H or OH. Bridge positions count the residues as written; N and C are the ends. Square brackets hold non-standard residues; d marks the D form. Peptide text beside a SMILES is read from it. * marks the point of attachment. ξ: configuration not given here. Phe(4-COOH) = N[C@@H](Cc1ccc(C(=O)O)cc1)C(=O)O; Bip = N[C@@H](Cc1ccc(-c2ccccc2)cc1)C(=O)O; Phe(3-Me) = Cc1cccc(C[C@H](N)C(=O)O)c1; NH(CH2)12COOH = O=C(O)CCCCCCCCCCCCN*; PEG6 = NCCOCCOCCOCCOCCOCCOCCC(=O)O; Val(3-OH) = CC(C)(O)[C@H](N)C(=O)O; X12 = CC(N)[C@H](N[*:1])C(=O)[*:2]; hhPhe = N[C@@H](CCCc1ccccc1)C(=O)O; hArg = N=C(N)NCCCC[C@H](N)C(=O)O; 4Pal = N[C@@H](Cc1ccncc1)C(=O)O; Cha = N[C@@H](CC1CCCCC1)C(=O)O; Cit = NC(=O)NCCC[C@H](N)C(=O)O; Thr(3ξ) = CC(O)[C@H](N)C(=O)O; 12Ado = NCCCCCCCCCCCC(=O)O; hSer = N[C@@H](CCO)C(=O)O; Carboxymethyl = O=C(O)C*; Orn = NCCC[C@H](N)C(=O)O; Pra = C#CC[C@H](N)C(=O)O; Aun = NCCCCCCCCCCC(=O)O; Dab = NCC[C@H](N)C(=O)O; Dap = NC[C@H](N)C(=O)O; AEEA = NCCOCCOCC(=O)O
Target: T1, PD-1/PD-L1 interaction (PE-labeled human PD-L1-Ig binding to Jurkat cell line over-expressing human PD-1) (Homo sapiens, UniProt Q15116)
T1 construct: expressed in transfected cells; host or cells: Jurkat
Assay: Jurkat-PD-1 Cell Binding High-Content Screening Assay (CBA)
Format: cell-based
Conditions: Jurkat cell line over-expressing human PD-1; PE-labeled PD-L1-Ig 20 nM final; read-out: Jurkat hPD1-PDL1 IC50
Method in brief: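 Jurkat cells over-expressing human PD-1 (8×10^3 per well, DMEM/10% FCS) preincubated with compound 2 h at 37° C, then PE-labeled human PD-L1-Ig (20 nM final) added for 1 h. Cells fixed with paraformaldehyde, Hoechst-stained, and bound fluorescence quantified by high-content imaging.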

T1 sequence (Q15116 25-288): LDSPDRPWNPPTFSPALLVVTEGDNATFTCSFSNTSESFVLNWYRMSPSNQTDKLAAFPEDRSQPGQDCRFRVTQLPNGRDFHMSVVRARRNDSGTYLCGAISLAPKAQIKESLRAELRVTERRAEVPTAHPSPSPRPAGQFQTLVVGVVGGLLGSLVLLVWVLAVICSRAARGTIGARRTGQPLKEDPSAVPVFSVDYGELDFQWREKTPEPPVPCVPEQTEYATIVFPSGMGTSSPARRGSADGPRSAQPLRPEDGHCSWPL

| Compound | IC50 |
| --- | --- |
| C#CC[C@H](NC(=O)COCCOCCNC(=O)[C@H](CCCN)NC(=O)[C@@H]1CSCC(=O)N[C@@H](Cc2ccncc2)C(=O)N[C@@H](Cc2ccc(OCC(=O)O)cc2)C(=O)N[C@@H](CC(=O)O)C(=O)N[C@@H](Cc2c[nH]c3ccccc23)C(=O)N[C@@H](C(C)C)C(=O)N[C@@H](Cc2ccc(-c3ccccc3)cc2)C(=O)N[C@@H]([C@@H](C)CC)C(=O)N[C@@H](CCCN)C(=O)N[C@H](CC(C)C)C(=O)N[C@@H](CCN)C(=O)N[C@@H](CC(C)C)C(=O)N[C@@H](C(C)C)C(=O)N[C@@H]([C@@H](C)O)C(=O)N1)C(=O)N[C@@H](CN)C(=O)NCCCCCCCCCCC(=O)O [Compound 1199] ({CH2CO}-[4Pal]Y(Carboxymethyl)DWV[Bip]I[Orn][dL][Dab]LVTC[Orn][AEEA][Pra][Dap][Aun]-OH; thioether N-14) | 13.3 nM |
| Cc1cccc(C[C@@H]2NC(=O)[C@H](CC(=O)O)NC(=O)[C@H](Cc3ccc(OCC(=O)O)cc3)NC(=O)[C@H](CN)NC(=O)CSC[C@@H](C(=O)N[C@@H](CCCCN)C(=O)NCCCCCCCCCCC(=O)O)NC(=O)[C@@H](CO)NC(=O)[C@H](C(C)C)NC(=O)[C@H](CC3CCCCC3)NC(=O)[C@H](CCN)NC(=O)[C@@H](CC(C)C)NC(=O)[C@H](CCCN)NC(=O)[C@H](C(C)C)NC(=O)[C@H](Cc3ccc(-c4ccccc4)cc3)NC(=O)[C@H](C(C)C)NC2=O)c1 [Compound 2001] ({CH2CO}-[Dap]Y(Carboxymethyl)D[Phe(3-Me)]V[Bip]V[Orn][dL][Dab][Cha]V[dS]CK[Aun]-OH; thioether N-14) | 32.4 nM |
| Cc1cccc(C[C@@H]2NC(=O)[C@H](CC(=O)O)NC(=O)[C@H](Cc3ccc(OCC(=O)O)cc3)NC(=O)[C@H](CCCCNC(=N)N)NC(=O)CSC[C@@H](C(=O)N[C@@H](CCCN)C(=O)N[C@@H](CCO)C(=O)NCCCCCCCCCCCC(=O)O)NC(=O)[C@H](C(C)O)NC(=O)[C@H](C(C)C)NC(=O)[C@H](CC3CCCCC3)NC(=O)[C@H](CCN)NC(=O)[C@@H](CC(C)C)NC(=O)[C@H](CCCN)NC(=O)[C@H](CCCNC(N)=O)NC(=O)[C@H](Cc3ccc(-c4ccccc4)cc3)NC(=O)[C@H](C(C)C)NC2=O)c1 (stereo partly drawn) [Compound 3568] ({CH2CO}-[hArg]Y(Carboxymethyl)D[Phe(3-Me)]V[Bip][Cit][Orn][dL][Dab][Cha]V[Thr(3ξ)]C[Orn][hSer][12Ado]-OH; thioether N-14) | 15.1 nM |
| Cc1cccc(C[C@@H]2NC(=O)[C@H](CC(=O)O)NC(=O)[C@H](Cc3ccc(OCC(=O)O)cc3)NC(=O)[C@H](CN)NC(=O)CSC[C@@H](C(=O)N[C@@H](CCCCN)C(=O)NCCCCCCCCCCC(=O)O)NC(=O)[C@H](CCCN)NC(=O)[C@H](C(C)C)NC(=O)[C@H](CC3CCCCC3)NC(=O)[C@H](CCN)NC(=O)[C@@H](CC(C)C)NC(=O)[C@H](CCCN)NC(=O)[C@H](Cc3ccc(O)cc3)NC(=O)[C@H](Cc3ccc(-c4ccccc4)cc3)NC(=O)[C@H](C(C)C)NC2=O)c1 [Compound 2590] ({CH2CO}-[Dap]Y(Carboxymethyl)D[Phe(3-Me)]V[Bip]Y[Orn][dL][Dab][Cha]V[Orn]CK[Aun]-OH; thioether N-14) | 9.5 nM |
| Cc1cccc(C[C@@H]2NC(=O)[C@H](CC(=O)O)NC(=O)[C@H](Cc3ccc(OCC(=O)O)cc3)NC(=O)[C@H](CN)NC(=O)CSC[C@@H](C(=O)N[C@@H](C)C(=O)N[C@@H](CC(=O)O)C(=O)NCCOCCOCC(=O)N[C@@H](CC(=O)O)C(=O)NCCOCCOCC(=O)NCCCCCCCCCCC(=O)O)NC(=O)[C@H]([C@@H](C)O)NC(=O)[C@H](C(C)C)NC(=O)[C@H](CC3CCCCC3)NC(=O)[C@H](CCN)NC(=O)[C@@H](CC(C)C)NC(=O)[C@H](CCCN)NC(=O)[C@H](CCCNC(N)=O)NC(=O)[C@H](Cc3ccc(-c4ccccc4)cc3)NC(=O)[C@H](C(C)C)NC2=O)c1 [Compound 1013] ({CH2CO}-[Dap]Y(Carboxymethyl)D[Phe(3-Me)]V[Bip][Cit][Orn][dL][Dab][Cha]VTCAD[AEEA]D[AEEA][Aun]-OH; thioether N-14) | 11.9 nM |
| Cc1cccc(C[C@@H]2NC(=O)[C@H](CC(=O)O)NC(=O)[C@H](Cc3ccc(OCC(=O)O)cc3)NC(=O)[C@H](CN)NC(=O)CSC[C@@H](C(=O)N[C@@H](CCN)C(=O)NCCCCCCCCCCCC(=O)O)NC(=O)[C@H](C(C)O)NC(=O)[C@H](C(C)C)NC(=O)[C@H](CC3CCCCC3)NC(=O)[C@H](CCN)NC(=O)[C@@H](CC(C)C)NC(=O)[C@H](CCCN)NC(=O)[C@H](CCCNC(N)=O)NC(=O)[C@H](Cc3ccc(-c4ccccc4)cc3)NC(=O)[C@H](C(C)C)NC2=O)c1 (stereo partly drawn) [Compound 3125] ({CH2CO}-[Dap]Y(Carboxymethyl)D[Phe(3-Me)]V[Bip][Cit][Orn][dL][Dab][Cha]V[Thr(3ξ)]C[Dab][12Ado]-OH; thioether N-14) | 29.1 nM |
| CC(C)C[C@H]1NC(=O)[C@H](CCCN)NC(=O)[C@H](C(C)C)NC(=O)[C@H](Cc2ccc(-c3ccccc3)cc2)NC(=O)[C@H](C(C)C)NC(=O)[C@H](Cc2c[nH]c3ccccc23)NC(=O)[C@H](CC(=O)O)NC(=O)[C@H](Cc2ccc(OCC(=O)O)cc2)NC(=O)[C@H](CN)NC(=O)CSC[C@@H](C(=O)NCCOCCOCC(=O)N[C@H](CO)C(=O)NCCCCCCCCCCC(=O)O)NC(=O)[C@H]([C@@H](C)O)NC(=O)[C@H](C(C)C)NC(=O)[C@H](CC2CCCCC2)NC(=O)[C@H](Cc2cnc[nH]2)NC1=O [Compound 1134] ({CH2CO}-[Dap]Y(Carboxymethyl)DWV[Bip]V[Orn][dL]H[Cha]VTC[AEEA][dS][Aun]-OH; thioether N-14) | 28.9 nM |

Continued by falling IC50, values first:

| IC50 | Compound |
| --- | --- |
| 60.9 nM | Cc1cccc(C[C@@H]2NC(=O)[C@H](CC(=O)O)NC(=O)[C@H](Cc3ccc(OCC(=O)O)cc3)NC(=O)[C@H](CCCNC(=N)N)NC(=O)CSC[C@@H](C(=O)N[C@@H](CCN)C(=O)NCCCCCCCCCCC(=O)O)NC(=O)[C@H](C(C)O)NC(=O)[C@H](C(C)C)NC(=O)[C@H](CC3CCCCC3)NC(=O)[C@H](CCN)NC(=O)[C@@H](CC(C)C)NC(=O)[C@H](CCCN)NC(=O)[C@H](Cc3ccc(O)cc3)NC(=O)[C@H](Cc3ccc(-c4ccccc4)cc3)NC(=O)[C@H](CCCc3ccccc3)NC2=O)c1 (stereo partly drawn) [Compound 3420] ({CH2CO}-RY(Carboxymethyl)D[Phe(3-Me)][hhPhe][Bip]Y[Orn][dL][Dab][Cha]V[Thr(3ξ)]C[Dab][Aun]-OH; thioether N-14) |
| 31.1 nM | Cc1cccc(C[C@@H]2NC(=O)[C@H](CC(=O)O)NC(=O)[C@H](Cc3ccc(C(=O)O)cc3)NC(=O)[C@H](CCN)NC(=O)CSC[C@@H](C(=O)N[C@@H](CCN)C(=O)NCCOCCOCC(=O)NCCOCCOCC(=O)NCCCCCCCCCCCCC(=O)O)NC(=O)[C@H](CO)NC(=O)[C@H](C(C)(C)O)NC(=O)[C@H](CC3CCCCC3)NC(=O)[C@H](Cc3c[nH]cn3)NC(=O)[C@@H](CC(C)C)NC(=O)[C@H](CCCN)NC(=O)[C@H](Cc3ccc(C(=O)O)cc3)NC(=O)[C@H](Cc3ccc(-c4ccccc4)cc3)NC(=O)[C@H](Cc3ccc(C(=O)O)cc3)NC2=O)c1 [Compound 2890] ({CH2CO}-[Dab][Phe(4-COOH)]D[Phe(3-Me)][Phe(4-COOH)][Bip][Phe(4-COOH)][Orn][dL]H[Cha][Val(3-OH)]SC[Dab][AEEA][AEEA]-{NH(CH2)12COOH}; thioether N-14) |
| 19.1 nM | Cc1cccc(C[C@@H]2NC(=O)[C@H](CC(=O)O)NC(=O)[C@H](Cc3ccc(O)cc3)NC(=O)[C@H](CC(N)=O)NC(=O)CSC[C@@H](C(=O)N[C@@H](CCN)C(=O)NCCCCCCCCCCC(=O)O)NC(=O)[C@H](CCCN)NC(=O)[C@H](C(C)C)NC(=O)[C@H](CC3CCCCC3)NC(=O)[C@H](CCN)NC(=O)[C@@H](CC(C)C)NC(=O)[C@H](CCCN)NC(=O)[C@H](Cc3ccc(O)cc3)NC(=O)[C@H](Cc3ccc(-c4ccccc4)cc3)NC(=O)[C@H](C(C)C)NC2=O)c1 [Compound 2696] ({CH2CO}-NYD[Phe(3-Me)]V[Bip]Y[Orn][dL][Dab][Cha]V[Orn]C[Dab][Aun]-OH; thioether N-14) |
| 14.6 nM | CC(C)C[C@H]1NC(=O)[C@H](CCCN)NC(=O)[C@H](C(C)C)NC(=O)[C@H](Cc2ccc(-c3ccccc3)cc2)NC(=O)[C@H](C(C)C)NC(=O)[C@H](Cc2c[nH]c3ccccc23)NC(=O)[C@H](CC(=O)O)NC(=O)[C@H](Cc2ccc(OCC(=O)O)cc2)NC(=O)[C@H](Cc2ccc(OCC(=O)O)cc2)NC(=O)CSC[C@@H](C(=O)N[C@@H](CCN)C(=O)NCCCCCCCCCCC(=O)O)NC(=O)[C@H](CCCN)NC(=O)[C@H](C(C)C)NC(=O)[C@H](CC2CCCCC2)NC(=O)[C@H](CCN)NC1=O [Compound 2561] ({CH2CO}-Y(Carboxymethyl)Y(Carboxymethyl)DWV[Bip]V[Orn][dL][Dab][Cha]V[Orn]C[Dab][Aun]-OH; thioether N-14) |
| 13.1 nM | CC(C)C[C@H]1NC(=O)[C@H](CCCN)NC(=O)[C@H](CCC(=O)O)NC(=O)[C@H](Cc2ccc(-c3ccccc3)cc2)NC(=O)[C@H](C(C)C)NC(=O)[C@H](Cc2c[nH]c3ccccc23)NC(=O)[C@H](CC(=O)O)NC(=O)[C@H](Cc2ccc(C(=O)O)cc2)NC(=O)[C@H](C(C)N)NC(=O)CSC[C@@H](C(=O)N[C@@H](CC(N)=O)C(=O)NCCOCCOCCOCCOCCOCCOCCC(=O)N[C@@H](CCCN)C(=O)NCCCCCCCCCCCC(=O)O)NC(=O)[C@H](CO)NC(=O)[C@H](C(C)C)NC(=O)[C@H](CC2CCCCC2)NC(=O)[C@H](CCN)NC1=O (stereo partly drawn) [Compound 3046] ({CH2CO}-[X12][Phe(4-COOH)]DWV[Bip]E[Orn][dL][Dab][Cha]VSCN[PEG6][Orn][12Ado]-OH; thioether N-14) |
| 10 nM | CC(C)C[C@H]1NC(=O)[C@H](CCCN)NC(=O)[C@H](C(C)C)NC(=O)[C@H](Cc2ccc(-c3ccccc3)cc2)NC(=O)[C@H](C(C)C)NC(=O)[C@H](Cc2c[nH]c3ccccc23)NC(=O)[C@H](CC(=O)O)NC(=O)[C@H](Cc2ccc(OCC(=O)O)cc2)NC(=O)[C@H](CCCCNC(=N)N)NC(=O)CSC[C@@H](C(=O)N[C@@H](CC(N)=O)C(=O)NCCOCCOCC(=O)N[C@@H](CCCCN)C(=O)NCCCCCCCCCCC(=O)O)NC(=O)[C@H](C(C)O)NC(=O)[C@H](C(C)C)NC(=O)[C@H](CC2CCCCC2)NC(=O)[C@H](CCN)NC1=O (stereo partly drawn) [Compound 3026] ({CH2CO}-[hArg]Y(Carboxymethyl)DWV[Bip]V[Orn][dL][Dab][Cha]V[Thr(3ξ)]CN[AEEA]K[Aun]-OH; thioether N-14) |
